Test results as given in patent US8524277B2, “Extended release dosage form” (Alza Corporation, priority 1998, dated 2013).

Type: physicochemical
Description: Hydrophilic materials for use in forming the interior wall which have solubilities sensitive to osmotic pressure or to ionic strength can be screened experimentally prior to formulating them within the interior wall. This procedure involves forming an aqueous solution of the candidate hydrophilic materials using distilled water as the solvent. Then, the resulting solution is cast onto a smooth inert surface, such as a glass plate, and allowed to dry to a film. The film is then removed and cut into sections of known area, thickness, and weight. The resulting film samples are then placed in a series of reference solutions of various osmotic pressures or ionic strengths with mild stirring. The time required for the film to dissolve, t, is then measured as a function of osmotic pressure or ionic strength. Then, given the known values of initial film thickness, hi, the dissolution rate of the film, dh/dt, can be calculated according to Equation 5. […]
The solubility of various hydrophilic materials to osmotic pressure was evaluated. […] Thicknesses of the discs were measured with a table micrometer. […] The time to dissolution was then monitored for each sample. Dissolution rate was calculated according to Equation 5 and plotted as a function of osmotic pressure for each molecular weight. […]

## hydroxypropylcellulose [Klucel EF]
  osmotic pressure at which the film is insoluble: above 30 atmospheres
  osmotic pressure at which the film is soluble: 0-30 atmospheres
